How the values were obtained:
[1] = biological target: Human immunodeficiency virus type 1 reverse transcriptase (Human immunodeficiency virus 1, UniProt Q72547, K103N/Y181C); assay: Inhibition of HIV1 reverse transcriptase K103N/Y181C double mutant using poly (A)/oligo (dT)15 as template/primer assessed as decrease in biotin-dUTP incorporation after 1 hr by ELISA
[2] = test system: Human immunodeficiency virus 1; assay: Antiviral activity against HIV1 harboring reverse transcriptase Y181C mutant infected in human MT4 cells assessed as protection against virus-induced cytopathic effect after 5 days by MTT assay; type: functional, organism-based; conditions: Human immunodeficiency virus 1, MT4, 120 h
[3] = test system: Human immunodeficiency virus 1; assay: microbe, parasite or virus in culture; conditions: Human immunodeficiency virus 1, 3B, MT4, 120 h
Description: Antiviral activity against wild type HIV1 3B infected in human MT4 cells assessed as protection against virus-induced cytopathic effect after 5 days by MTT assay

[4] = test system: Human immunodeficiency virus 1; assay: Antiviral activity against HIV1 harboring reverse transcriptase F227L/V106A double mutant infected in human MT4 cells assessed as protection against virus-induced cytopathic effect after 5 days by MTT assay; type: functional, organism-based; conditions: Human immunodeficiency virus 1, MT4, 120 h
[5] = test system: Human immunodeficiency virus 1; assay: Antiviral activity against HIV1 harboring reverse transcriptase E138K mutant infected in human MT4 cells assessed as protection against virus-induced cytopathic effect after 5 days by MTT assay; type: functional, organism-based; conditions: Human immunodeficiency virus 1, MT4, 120 h
[6] = test system: Human immunodeficiency virus 1; assay: Antiviral activity against HIV1 harboring reverse transcriptase Y188L mutant infected in human MT4 cells assessed as protection against virus-induced cytopathic effect after 5 days by MTT assay; type: functional, organism-based; conditions: Human immunodeficiency virus 1, MT4, 120 h
[7] = biological target: Human immunodeficiency virus type 1 reverse transcriptase (Human immunodeficiency virus 1, UniProt Q72547); assay: Inhibition of wild type HIV1 reverse transcriptase using poly (A)/oligo (dT)15 as template/primer assessed as decrease in biotin-dUTP incorporation after 1 hr by ELISA
[8] = test system: Human immunodeficiency virus 1; assay: Antiviral activity against HIV1 harboring reverse transcriptase L100I mutant infected in human MT4 cells assessed as protection against virus-induced cytopathic effect after 5 days by MTT assay; type: functional, organism-based; conditions: Human immunodeficiency virus 1, MT4, 120 h
[9] = test system: Human immunodeficiency virus 2; assay: Antiviral activity against HIV2 ROD infected in human MT4 cells assessed as protection against virus-induced cytopathic effect after 5 days by MTT assay; type: functional, organism-based; conditions: Human immunodeficiency virus 2, ISOLATE ROD, MT4, 120 h
[10] = test system: Human immunodeficiency virus 1; assay: Antiviral activity against HIV1 harboring reverse transcriptase RES056 double mutant infected in human MT4 cells assessed as protection against virus-induced cytopathic effect after 5 days by MTT assay; type: functional, organism-based; conditions: Human immunodeficiency virus 1, MT4, 120 h
in vitro = conditions: human, MT4 cells
Description: Selectivity index, ratio of CC50 for human MT4 cells to EC50 for wild type HIV1 3B infected in human MT4 cells

[11] = test system: Human immunodeficiency virus 1; assay: Antiviral activity against HIV1 harboring reverse transcriptase K103N mutant infected in human MT4 cells assessed as protection against virus-induced cytopathic effect after 5 days by MTT assay; type: functional, organism-based; conditions: Human immunodeficiency virus 1, MT4, 120 h
[12] = Cytotoxicity against human MT4 cells assessed as reduction in cell viability after 5 days by MTT assay; type: cell-based

Row | SMILES | IC50 [1] [nM] | EC50 [2] [nM] | EC50 [3] [nM] | EC50 [4] [nM] | EC50 [5] [nM] | EC50 [6] [nM] | IC50 [7] [nM] | EC50 [8] [nM] | EC50 [9] [nM] | EC50 [10] [nM] | selectivity ratio (in vitro) | EC50 [11] [nM] | CC50 at 120 h [12] [nM]
1 | Cc1cc(/C=C/C#N)cc(C)c1Oc1cc(NCCN2CCN(C)CC2)nc(Nc2ccc(C#N)cc2)c1 | 6240 | 1430 | 24.8 | 5700 | 770 | > 7960 | 2190 | 2020 | > 7960 | 1320 | 321 | 28 | 7960
2 | COCCNc1cc(Oc2c(C)cc(/C=C/C#N)cc2C)nc(Nc2ccc(C#N)cc2)n1 | 230 | 9.4 | 1.56 | 220 | 6.4 | 51 | 40 | 9.3 | 1560 | 42 | 2040 | 1.7 | 3190
3 | Cc1cc(/C=C/C#N)cc(C)c1Oc1cc(NCCN(C)C)nc(Nc2ccc(C#N)cc2)c1 | 2470 | 180 | 1.91 | > 4270 | 970 | > 4270 | 830 | 190 | > 4270 | 230 | 2240 | 2.7 | 4270
4 | Cc1cc(/C=C/C#N)cc(C)c1Oc1cc(NCCN2CCOCC2)nc(Nc2ccc(C#N)cc2)c1 | 6270 | 220 | 1.68 | 4430 | 77 | > 43200 | 740 | 240 | > 42000 | 430 | 25600 | 1.7 | 43200
5 | Cc1cn([C@H]2C[C@H](N=[N+]=[N-])[C@@H](CO)O2)c(=O)[nH]c1=O [ZIDOVUDINE] | – | 6 | 11.4 | – | 18 | – | – | – | 8.1 | 12 | > 658 | – | > 7480
6 | Cc1cc(C#N)cc(C)c1Oc1nc(Nc2ccc(C#N)cc2)nc(N)c1Br [ETRAVIRINE] | – | 20 | – | 24 | – | 21 | – | 10 | – | 26 | – | – | –
7 | Cc1cc(/C=C/C#N)cc(C)c1Oc1cc(NCCN2CCOCC2)nc(Nc2ccc(C#N)cc2)n1 | 340 | 7.2 | 1.54 | 180 | 7.5 | 98 | 140 | 10 | 1420 | 21 | 2310 | 1.7 | 3540
8 | Cc1cc(/C=C/C#N)cc(C)c1Oc1cc(Nc2ccc(C#N)cc2)nc(NC2CC2)c1 | 5390 | 210 | 3.35 | 5350 | 27 | > 24800 | 350 | 170 | > 24800 | 2820 | 7400 | 8 | 24800
9 | C=CCNc1cc(Oc2c(C)cc(/C=C/C#N)cc2C)nc(Nc2ccc(C#N)cc2)n1 | 190 | 13 | 1.52 | 530 | 4.4 | 56 | 30 | 21 | > 3050 | 44 | 2000 | 4.8 | 3050
10 | Cc1cc(/C=C/C#N)cc(C)c1Oc1cc(NC2CC2)nc(Nc2ccc(C#N)cc2)n1 | 240 | 35 | 2.68 | 350 | 10 | 110 | 50 | 23 | > 3000 | 58 | 1120 | 2.6 | 3000
11 | Cc1cc(/C=C/C#N)cc(C)c1Oc1cc(Cl)nc(Nc2ccc(C#N)cc2)c1 | – | 1170 | 7.81 | > 312000 | 43 | > 312000 | 180 | 710 | > 312000 | > 312000 | > 39900 | 33 | > 312000
12 | COCCNc1cc(Oc2c(C)cc(/C=C/C#N)cc2C)cc(Nc2ccc(C#N)cc2)n1 | 18100 | 1370 | 6.24 | 22300 | 57 | 41500 | 920 | 740 | > 58200 | 4790 | 9330 | 28 | 58200
13 | Cc1cc(/C=C/C#N)cc(C)c1Oc1cc(NCC2CCCO2)nc(Nc2ccc(C#N)cc2)n1 (stereo unspecified) | 86900 | 6970 | 29 | 172000 | 150 | > 268000 | 440 | 2890 | > 268000 | 44400 | > 9240 | 91 | > 268000
14 | Cc1cc(/C=C/C#N)cc(C)c1Oc1cc(Cl)nc(Nc2ccc(C#N)cc2)n1 | 80 | 11 | 1.69 | 160 | 9.3 | 48 | 20 | 8.8 | > 4310 | 44 | 2560 | 2.4 | 4310
15 | Cc1ccnc2c1NC(=O)c1cccnc1N2C1CC1 [NEVIRAPINE] | – | – | 125 | – | 280 | – | – | 3250 | – | > 15000 | – | 10300 | > 15000
16 | Cc1cc(/C=C/C#N)cc(C)c1Oc1cc(NCCC#N)nc(Nc2ccc(C#N)cc2)n1 | 100 | 9.9 | 1.36 | 190 | 6.5 | 31 | 20 | 11 | 320 | 14 | 736 | 1.2 | 1000
17 | C=CCNc1cc(Oc2c(C)cc(/C=C/C#N)cc2C)cc(Nc2ccc(C#N)cc2)n1 | 31300 | 1090 | 9.99 | ≥ 57400 | 43 | > 82100 | 270 | 630 | > 82100 | 30400 | 8220 | 27 | 82100
18 | Cc1cc(/C=C/C#N)cc(C)c1Oc1cc(NCC2CCCO2)nc(Nc2ccc(C#N)cc2)c1 (stereo unspecified) | 41200 | 4540 | 28.8 | > 73600 | 170 | > 73600 | 630 | 2600 | > 73600 | 31600 | 2560 | 48 | 73600
19 | Cc1cc(/C=C/C#N)cc(C)c1Oc1cc(NCCCN2CCOCC2)nc(Nc2ccc(C#N)cc2)c1 | 7800 | 760 | 4.76 | 5010 | 110 | ≥ 4720 | 970 | 530 | ≥ 4720 | 700 | ≥ 992 | 5.6 | ≥ 4720
20 | COC(CNc1cc(Oc2c(C)cc(/C=C/C#N)cc2C)nc(Nc2ccc(C#N)cc2)n1)OC | – | – | – | – | – | – | 170 | – | – | – | – | – | 3470
21 | Cc1cc(/C=C/C#N)cc(C)c1Oc1cc(NCCN(C)C)nc(Nc2ccc(C#N)cc2)n1 | 20 | 9 | 1.48 | 310 | 41 | 900 | 10 | 10 | > 3040 | 27 | 2050 | 2.4 | 3040
22 | Cc1cc(/C=C/C#N)cc(C)c1Oc1cc(NCCN2CCNCC2)nc(Nc2ccc(C#N)cc2)n1 | 1120 | 610 | 24.7 | > 3650 | 940 | > 3650 | 440 | 790 | > 3650 | 770 | 148 | 31 | 3650
23 | O=C1Nc2ccc(Cl)cc2[C@@](C#CC2CC2)(C(F)(F)F)O1 [EFAVIRENZ] | – | 6 | – | 120 | 49 | 130 | – | 47 | – | 110 | – | 110 | > 6340

From ChEMBL document CHEMBL4219160, “The discovery of novel diarylpyri(mi)dine derivatives with high level activity against a wide variety of HIV-1 strains as well as against HIV-2” (Bioorg Med Chem, 2018)
